These results are taken from patent publication US20230094952A1, “Method for Culturing Hematopoietic Stem Cells” (Sumitomo Pharma Co., Ltd., priority 2019, published 2023).

Test [1] has as its system mouse long-term hematopoietic stem cells. Nature of the test: Reproducibility and concentration dependence test: 1-week culture of sorted Hoxb5-tri-mCherry mouse long-term hematopoietic stem cells, flow cytometry. It counts as cell-based. The note with it: day 7 of culture, n=2. In short, it runs like this: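 Hoxb5-tri-mCherry+ LT-HSCs (Lin−c-Kit+Sca-1+Flk2−CD34−/lo CD150+) were sorted from mouse bone marrow at 10 cells/well into StemSpan SFEM with SCF and TPO. Cells were cultured with compound for 1 week at 37°C, 5% CO2. Flow cytometry then measured KLS and mCherry+ fractions and cell counts.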
(In flow cytometry, cells or beads pass a laser one at a time.)

The test system is the same in test [2]. Kind of test: Combination test with UM171 on mouse long-term hematopoietic stem cells. It counts as cell-based. The note with it: for KLS-positive rate / Viable cell count / mCherry-positive rate: n=2. The method, then:
The cells after classification were seeded in a 96-well plate. A cell culture medium was prepared by adding Stem Cell Factor (SCF, manufactured by PeproTech, Inc.) and Thrombopoietin (TPO, manufactured by PeproTech, Inc.) to StemSpan SFEM culture medium (manufactured by […] Technologies Inc.) and added in advance to a cell culture 96-well plate (manufactured by BD Biosciences) at 100 μL/well, and the cells sorted with the FACS Aria II cell sorter (BD Biosciences) were then seeded at 10 cells/well.
The test compounds each in the form of 10 mM DMSO solution were diluted with the cell culture medium to a final concentration of 1 μM, and added to the cells seeded after classification through medium exchange to a final volume of 200 μL/well. Thereafter, the cells were cultured in a CO2 incubator under conditions of 37° C. and 5% CO2 for 1 week.
After culture, the cells were stained with the antibodies for the surface markers c-Kit and Sca-1, Ter-119, B220, CD3, CD4, CD8a, Gr-1, and CD11b, and the ratio and post-growth cell count of a KLS fraction (c-Kit^+, Lin^−, Sca-1^+) or an mCherry-positive fraction given with use of a FACS Aria II cell sorter were analyzed by using FlowJo (BD Biosciences). The mCherry-positive fraction is a cell fraction expressing the Hoxb5 gene, and the KLS fraction is a cell fraction being c-Kit-positive, Lin-negative, and Sca-1-positive, and includes hematopoietic stem cells and multipotent progenitor cells as main components.
A DMSO solution of artemether was adjusted with the cell culture medium to three final concentrations (0.1 μM, 1 μM, 10 μM), and a DMSO solution of UM171 was adjusted with the cell culture medium to four final concentrations (0.1 μM, 0.3 μM, 1 μM, 3 μM), and cell culture was performed at n=2 by the same method as in Example 1. The cell culture and evaluation criteria were the same as those in Example 2.

Setting [3] is: UM171 0.1 μM alone (DMSO, no artemether).
[4] abbreviates: UM171 0.3 μM alone (DMSO, no artemether).
Where [5] appears, read: UM171 1 μM alone (DMSO, no artemether).
The mark [6] stands for this setting: UM171 3 μM alone (DMSO, no artemether).

`CCO[C@H]1O[C@@H]2O[C@@]3(C)CC[C@H]4[C@H](C)CC[C@@H]([C@H]1C)[C@@]24OO3` [Example 1-31, artemotil, reference compound]: the KLS-positive rate in test [1] (Table 3, compound 0.1 μM) is reported as 28.85%; in test [1] (Table 3, compound 0.3 μM), 21.95%; in test [1] (Table 3, compound 1 μM), 30.8%; in test [1] (Table 3, compound 3 μM), 66.65%; in test [1] (Table 3, compound 10 μM), 0%; in test [1] (Table 4, compound 0.1 μM), 26.5%. Besides, the KLS-positive rate in test [1] (Table 4, compound 0.3 μM) came out at 19.7%; in test [1] (Table 4, compound 1 μM) it was 62.3%; in test [1] (Table 4, compound 3 μM) it was 87.5%; in test [1] (Table 4, compound 10 μM), 25.0%. The Viable cell count came out at 1073 cell in test [1] (Table 3, compound 0.1 μM); 1529 cell in test [1] (Table 3, compound 0.3 μM); 249 cell in test [1] (Table 3, compound 1 μM); 8 cell in test [1] (Table 3, compound 3 μM); 0 cell in test [1] (Table 3, compound 10 μM); 201.5 cell in test [1] (Table 4, compound 0.1 μM). For the same molecule, the Viable cell count in test [1] (Table 4, compound 0.3 μM) came out at 194.0 cell; in test [1] (Table 4, compound 1 μM), 19.5 cell; in test [1] (Table 4, compound 3 μM), 2.5 cell; in test [1] (Table 4, compound 10 μM), 1.5 cell. The mCherry-positive rate in test [1] (Table 3, compound 0.1 μM) turned out to be 57.4%; in test [1] (Table 3, compound 0.3 μM) it was 47.65%; in test [1] (Table 3, compound 1 μM), 92.85%; in test [1] (Table 3, compound 3 μM), 100%; in test [1] (Table 3, compound 10 μM), 0%; in test [1] (Table 4, compound 0.1 μM) it was 84.9%. Besides, the mCherry-positive rate in test [1] (Table 4, compound 0.3 μM) was found to be 96.3%; in test [1] (Table 4, compound 1 μM) it was 98.3%; in test [1] (Table 4, compound 3 μM), 100.0%; in test [1] (Table 4, compound 10 μM), 50.0%.

Turning to `C[C@H]1[C@H](OC(=O)CCC(=O)O)O[C@@H]2O[C@@]3(C)CC[C@H]4[C@H](C)CC[C@@H]1[C@@]24OO3` [Example 1-32, artesunate, reference compound], the KLS-positive rate in test [1] (Table 3, compound 0.1 μM) is 36.3%; in test [1] (Table 3, compound 0.3 μM) it was 46.4%; in test [1] (Table 3, compound 1 μM), 45.3%; in test [1] (Table 3, compound 3 μM), 0%; in test [1] (Table 3, compound 10 μM), 0%; in test [1] (Table 4, compound 0.1 μM) it was 21.0%. The KLS-positive rate is given as 12.4% in test [1] (Table 4, compound 0.3 μM); 90.6% in test [1] (Table 4, compound 1 μM); 21.2% in test [1] (Table 4, compound 3 μM); 0.0% in test [1] (Table 4, compound 10 μM). Moreover, the Viable cell count in test [1] (Table 3, compound 0.1 μM) is 1065.5 cell; in test [1] (Table 3, compound 0.3 μM), 540 cell; in test [1] (Table 3, compound 1 μM) it was 266 cell; in test [1] (Table 3, compound 3 μM), 0.5 cell; in test [1] (Table 3, compound 10 μM) it was 0.5 cell; in test [1] (Table 4, compound 0.1 μM), 597.5 cell. For the same molecule, the Viable cell count in test [1] (Table 4, compound 0.3 μM) is listed as 355.5 cell; in test [1] (Table 4, compound 1 μM), 9.0 cell; in test [1] (Table 4, compound 10 μM), 1.0 cell. Besides, the mCherry-positive rate in test [1] (Table 3, compound 0.1 μM) stood at 23.59%; in test [1] (Table 3, compound 0.3 μM), 35.1%; in test [1] (Table 3, compound 1 μM) it was 91.2%; in test [1] (Table 3, compound 3 μM), 50%; in test [1] (Table 3, compound 10 μM), 0%; in test [1] (Table 4, compound 0.1 μM), 9.4%. For the same molecule, the mCherry-positive rate is given as 6.0% in test [1] (Table 4, compound 0.3 μM); 100.0% in test [1] (Table 4, compound 1 μM); 53.3% in test [1] (Table 4, compound 3 μM); 25.0% in test [1] (Table 4, compound 10 μM).

With `C[C@@H]1CC[C@H]2[C@@H](C)C(=O)O[C@@H]3O[C@@]4(C)CC[C@@H]1[C@]32OO4` [Example 1-33, artemisinin, reference compound], the KLS-positive rate came to 33.2% in test [1] (Table 3, compound 0.1 μM); 18.2% in test [1] (Table 3, compound 0.3 μM); 46.85% in test [1] (Table 3, compound 1 μM); 50.8% in test [1] (Table 3, compound 3 μM); 52% in test [1] (Table 3, compound 10 μM); 20.2% in test [1] (Table 4, compound 0.1 μM). Also, the KLS-positive rate in test [1] (Table 4, compound 0.3 μM) stood at 11.2%; in test [1] (Table 4, compound 1 μM) it was 20.3%; in test [1] (Table 4, compound 3 μM), 26.1%; in test [1] (Table 4, compound 10 μM), 16.1%. Besides, the Viable cell count in test [1] (Table 3, compound 0.1 μM) is given as 445.5 cell; in test [1] (Table 3, compound 0.3 μM) it was 1020 cell; in test [1] (Table 3, compound 1 μM) it was 728 cell; in test [1] (Table 3, compound 3 μM), 229 cell; in test [1] (Table 3, compound 10 μM) it was 282.5 cell; in test [1] (Table 4, compound 0.1 μM), 268.5 cell. In addition, the Viable cell count in test [1] (Table 4, compound 0.3 μM) is 309.5 cell; in test [1] (Table 4, compound 1 μM) it was 268.0 cell; in test [1] (Table 4, compound 3 μM), 85.0 cell; in test [1] (Table 4, compound 10 μM), 178.0 cell. In addition, the mCherry-positive rate worked out at 49.25% in test [1] (Table 3, compound 0.1 μM); 28.15% in test [1] (Table 3, compound 0.3 μM); 60.85% in test [1] (Table 3, compound 1 μM); 81.3% in test [1] (Table 3, compound 3 μM); 80% in test [1] (Table 3, compound 10 μM); 28.1% in test [1] (Table 4, compound 0.1 μM). Also, the mCherry-positive rate in test [1] (Table 4, compound 0.3 μM) is on record as 23.5%; in test [1] (Table 4, compound 1 μM) it was 56.8%; in test [1] (Table 4, compound 3 μM), 81.8%; in test [1] (Table 4, compound 10 μM), 78.8%.

In the case of `C[C@@H]1CC[C@H]2[C@@H](C)C(=O)O[C@@H]3O[C@@]4(C)CC[C@@H]1[C@]32O4` [Example 1-34, (3R,3aS,6R,6aS,9S,10aS,10bR)-3,6,9-Trimethyloctahydro-10aH-9,10b-epoxypyrano[4,3,2-jk][2]benzoxepin-2(3H)-one], the KLS-positive rate in test [1] (Table 4, compound 0.1 μM) stood at 77.3%; in test [1] (Table 4, compound 0.3 μM), 28.4%; in test [1] (Table 4, compound 1 μM) it was 21.8%; in test [1] (Table 4, compound 3 μM), 27.7%; in test [1] (Table 4, compound 10 μM), 27.5%. In addition, the Viable cell count in test [1] (Table 4, compound 0.1 μM) amounted to 136.5 cell; in test [1] (Table 4, compound 0.3 μM), 389.0 cell; in test [1] (Table 4, compound 1 μM) it was 713.5 cell; in test [1] (Table 4, compound 3 μM) it was 268.0 cell; in test [1] (Table 4, compound 10 μM), 70.0 cell. The mCherry-positive rate is on record as 11.7% in test [1] (Table 4, compound 0.1 μM); 18.3% in test [1] (Table 4, compound 0.3 μM); 15.2% in test [1] (Table 4, compound 1 μM); 14.6% in test [1] (Table 4, compound 3 μM); 0.4% in test [1] (Table 4, compound 10 μM).

In the case of `CO[C@@H]1O[C@@H]2O[C@@]3(C)CC[C@H]4[C@H](C)CC[C@@H]([C@H]1C)[C@@]24OO3` [Example 1-35, (3R,5aS,6R,8aS,9R,10R,12R,12aR)-10-Methoxy-3,6,9-trimethyldecahydro-12H-3,12-epoxypyrano[4,3-j][1,2]benzodioxepine], the KLS-positive rate in test [1] (Table 4, compound 0.1 μM) was determined as 13.8%; in test [1] (Table 4, compound 0.3 μM), 19.9%; in test [1] (Table 4, compound 1 μM), 17.9%; in test [1] (Table 4, compound 3 μM), 48.7%; in test [1] (Table 4, compound 10 μM), 46.7%. The Viable cell count in test [1] (Table 4, compound 0.1 μM) was determined as 763.5 cell; in test [1] (Table 4, compound 0.3 μM), 544.5 cell; in test [1] (Table 4, compound 1 μM), 554.0 cell; in test [1] (Table 4, compound 3 μM) it was 104.5 cell; in test [1] (Table 4, compound 10 μM), 121.5 cell. For the same molecule, the mCherry-positive rate in test [1] (Table 4, compound 0.1 μM) was determined as 3.0%; in test [1] (Table 4, compound 0.3 μM), 48.5%; in test [1] (Table 4, compound 1 μM), 74.0%; in test [1] (Table 4, compound 3 μM), 92.2%; in test [1] (Table 4, compound 10 μM) it was 99.6%.

Take `Cn1nnc(-c2ccc3c(c2)[nH]c2nc(Cc4ccccc4)nc(N[C@H]4CC[C@H](N)CC4)c23)n1` [UM171, (1r,4r)-N1-(2-benzyl-7-(2-methyl-2H-tetrazol-5-yl)-9H-pyrimido[4,5-b]indol-4-yl)cyclohexane-1,4-diamine]: the KLS-positive rate in test [2] (setting [3]) is given as 41.0%; in test [2] (setting [4]), 71.6%; in test [2] (setting [5]), 98.0%; in test [2] (setting [6]) it was 82.2%. Further, the Viable cell count in test [2] (setting [3]) is on record as 508.0 cell; in test [2] (setting [4]) it was 281.0 cell; in test [2] (setting [5]), 24.5 cell; in test [2] (setting [6]) it was 82.5 cell. Besides, the mCherry-positive rate in test [2] (setting [3]) is given as 4.7%; in test [2] (setting [4]) it was 17.1%; in test [2] (setting [5]), 38.9%; in test [2] (setting [6]), 16.2%. Moreover, the “Effect of culture with artemether and UM171 together on mCherry-positive and KLS-positive cell ratios” value in test [2] (compared with any one of the substances alone) was “combinational effect”.
